From ChEMBL document CHEMBL5131394, “Structure-activity and mechanistic studies of non-peptidic inhibitors of the PLK1 polo box domain identified through REPLACE” (Eur J Med Chem, 2022) come the findings set out here.

Bounds are passed on as bounds.

By IC50 is commonly meant the point on the concentration scale where inhibition reaches its midpoint. One may read the EC50 as the concentration at which the effect is half-maximal.

Assay [1] concerns PC-3. The experiment in a line: Antiproliferative activity against human PC-3 cells assessed as cell viability measured after 72 hrs by MTT assay. It is filed as functional, cell-based. The settings on record: PC-3, 72 h.
Assay [2] is described as follows: Antiproliferative activity against human HCT116-p53-null cells assessed as cell viability measured after 72 hrs by MTT assay. The format is functional, cell-based. (Formazan colour is commonly taken as a measure of viable cells.)
Assay [3] deals with T1, Serine/threonine-protein kinase PLK1 (Homo sapiens, UniProt P53350). The experiment in a line: Binding affinity to full length PLK1 in human PC-3 cells assessed as stabilized protein incubated for 2 hrs followed by aggregation temperature at 56.2 degC by […] analysis. It is filed as cell-based.
T1 sequence (P53350 whole entry): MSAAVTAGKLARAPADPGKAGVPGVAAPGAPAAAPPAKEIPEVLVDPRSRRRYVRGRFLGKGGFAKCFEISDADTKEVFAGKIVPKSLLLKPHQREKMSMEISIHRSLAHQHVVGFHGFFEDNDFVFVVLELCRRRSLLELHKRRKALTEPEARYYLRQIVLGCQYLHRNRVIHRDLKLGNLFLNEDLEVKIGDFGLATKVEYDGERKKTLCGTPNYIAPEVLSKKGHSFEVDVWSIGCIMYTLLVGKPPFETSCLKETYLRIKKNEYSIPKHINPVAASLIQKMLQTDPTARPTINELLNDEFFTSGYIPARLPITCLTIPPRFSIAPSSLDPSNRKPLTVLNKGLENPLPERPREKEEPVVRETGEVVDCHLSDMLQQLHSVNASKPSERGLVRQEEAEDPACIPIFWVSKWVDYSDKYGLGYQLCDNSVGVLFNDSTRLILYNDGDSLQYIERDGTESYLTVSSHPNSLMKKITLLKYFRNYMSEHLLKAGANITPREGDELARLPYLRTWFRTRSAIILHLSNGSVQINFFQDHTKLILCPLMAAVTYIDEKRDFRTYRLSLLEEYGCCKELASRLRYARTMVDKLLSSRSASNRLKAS
The nature of assay [4]: Antiproliferative activity against human RPE cells expressing wild-type PLK1 assessed as reduction in cell viability measured after 72 hrs by MTT assay. It is filed as functional, cell-based.
Assay [5] has as its target T1, Serine/threonine-protein kinase PLK1. The experiment in a line: Binding affinity to recombinant human N-terminal GST-tagged PLK1-PBD (367 to 603 end residue) expressed in Escherichia coli using MAGPMQS[pT]PLNGAKK as substrate incubated for 45 mins by fluorescence polarization assay.
Assay [6] is described as follows: Antiproliferative activity against human RPE cells expressing PLK1 C67V mutant assessed as reduction in cell viability measured after 72 hrs by MTT assay. It is filed as functional, cell-based.
The subject of assay [7] is A549. Nature of the assay: Antiproliferative activity against human A549 cells assessed as cell viability measured after 72 hrs by MTT assay. The format is functional, cell-based. The settings on record: A549, 72 h.
Assay [8] is described as follows: Antiproliferative activity against human p53HCT116 cells assessed as cell viability measured after 72 hrs by MTT assay. The format is functional, cell-based. The settings on record: p53HCT116, 72 h.
The subject of assay [9] is PC-3. The experiment in a line: Induction of mitotic arrest in human PC-3 cells assessed as accumulation of cells at G2/M phase. It is filed as functional.
Assay [10] deals with HeLa. Nature of the assay: Antiproliferative activity against human HeLa cells assessed as cell viability measured after 72 hrs by MTT assay. It is filed as functional, cell-based.

As for `CCCCCCCCc1ccc(C(=O)Nc2ccc(C)cc2C(=O)O)cc1`, the IC50 amounted to 16.3 µM in [1]; 10 µM in assay [2]; 13.4 µM in assay [4]; 2.2 µM in assay [5]; 12.6 µM in assay [6]; 5.1 µM in assay [7]. For the same compound, in assay [8], the IC50 was found to be 17.4 µM. The EC50 in assay [3] amounted to 0.82 µM.

In the case of `CC[C@@H]1C(=O)N(C)c2cnc(Nc3ccc(C(=O)NC4CCN(C)CC4)cc3OC)nc2N1C1CCCC1` [BI-2536], the Activity in assay [9] is reported as greater than 75%.

As for `CCCCCCCCc1ccc(CNc2cc(C)ccc2C(=O)O)cc1`, the concentration for half-maximal inhibition (IC50) in [5] stood at 21.7 µM. `CCCCCCCCc1ccc(C(=O)Nc2cccc(F)c2C(=O)O)cc1`: the IC50 in assay [1] was found to be 11.6 µM; in assay [2], 10 µM; in [4], 8.79 µM; in assay [5], 11.1 µM; in assay [6] it was 9.1 µM; in [7], 2.9 µM. In the case of `CCCCCCCCc1ccc(C(=O)Nc2c(O)cccc2C(=O)O)cc1`, the IC50 in assay [5] turned out to be 12 µM.

`CCCCCCCCc1ccc(C(=O)Nc2ccccc2S(N)(=O)=O)cc1`: in assay [5], the IC50 stood at 259 µM. As for `CCCCCCCCc1ccc(CNc2ccc(C)cc2C(=O)O)cc1`, the IC50 in [5] is greater than 600 µM.

`CCCCCCCCc1ccc(C(=O)Nc2cccc(O)c2C(=O)O)cc1`: the IC50 in assay [5] was determined as 7.9 µM.

For `CCCCCCCCc1ccc(C(=O)Nc2ccccc2C(=O)OCC)cc1`, the figures for the IC50 in assay [1], in assay [5] and in [10] were greater than 100 µM, greater than 600 µM and greater than 100 µM, respectively. Regarding `CCCCCCCCc1ccc(C(=O)Nc2cccc(OP(=O)(O)O)c2)cc1`, the IC50 in assay [5] worked out at 98.3 µM. Still for that read-out and setting: then `CCCCCc1ccc(C(=O)Nc2ccccc2C(=O)O)cc1`, with 224 µM; and `CCCCCCCCc1ccc(C(=O)Nc2cccc(OC)c2C(=O)O)cc1`, with 29.6 µM. Regarding `CCCCCCCCc1ccc(C(=O)Nc2cccc([N+](=O)[O-])c2C(=O)O)cc1`, the IC50 in assay [5] was 6.1 µM. On to `CCCCCCCCc1ccc(C(=O)Nc2cccc(C(F)(F)F)c2C(=O)O)cc1`, for which the IC50 in assay [5] came out at 29.4 µM. In the case of `CCCCCCCCc1ccc(C(=O)Nc2ccccc2B(O)O)cc1`, the IC50 in assay [5] was greater than 600 µM.

Take `CCCCCCCCCCCCc1ccc(C(=O)Nc2ccccc2C(=O)O)cc1`: the IC50 in assay [1] is 14 µM.

Consider `CCCCCCCCc1ccc(C(=O)Nc2ccc(OC)cc2C(=O)O)cc1`, for which the IC50 was 5.9 µM in [5] and 8 µM in assay [10].

For the compound `CCCCCCCCc1ccc(CNc2ccccc2C(=O)O)cc1`, in assay [5], the IC50 stood at 9.8 µM. `CCCCCCCCc1ccc(C(=O)Nc2ccccc2C(=O)O)cc1`: the IC50 in [2] was determined as 8 µM; in assay [4], 33 µM; in assay [6] it was 25.9 µM; in assay [7] it was 2.8 µM. For the compound `CCCCCCCCc1ccc(CNc2cccc(F)c2C(=O)O)cc1`, the IC50 in assay [5] turned out to be 18.8 µM. Turning to `CCCCCCCCc1ccc(C(=O)Nc2ccccc2[N+](=O)[O-])cc1`, the IC50 in [5] was greater than 600 µM. In the case of `CCCCCCCCc1ccc(CNc2cccc(OP(=O)(O)O)c2)cc1`, the IC50 in assay [5] is greater than 600 µM. In the case of `CCCCCCCCc1ccc(CNc2cccc(CC)c2)cc1`, the IC50 in assay [5] is greater than 600 µM. Regarding `CCCCCCCCc1ccc(CCNc2ccccc2C(=O)O)cc1`, the 50% inhibitory concentration (IC50) in assay [5] turned out to be 118 µM. In the case of `CCCCCCCCc1ccc(C(=O)Nc2cccc(Cl)c2C(=O)O)cc1`, the IC50 in [5] came out at 25.3 µM. On to `CCCCCCCCc1ccc(C(=O)Nc2cc(F)cc(F)c2C(=O)O)cc1`, for which the IC50 in assay [5] amounted to 30.6 µM. `CCCCCCCCc1ccc(C(=O)Nc2cc(C)ccc2C(=O)O)cc1`: the IC50 in assay [1] came out at 18.8 µM; in [2], 11.4 µM; in [5], 4 µM; in assay [7], 3.5 µM; in assay [8], 24.2 µM. In the case of `CCCCc1ccc(C(=O)Nc2ccccc2C(=O)O)cc1`, in assay [5], the IC50 is greater than 600 µM.
